Legend:
mice [1] = assay: Forced swimming test in mice (FST); assay type: in vivo; details: Mus musculus, 0.5 h, 30ip, 30 min after administration, vs control group, read-out: Reduction % at 30ip (duration of immobility)
Procedure: Forced Swimming Test in Mice (FST)
The Forced swimming test is an animal model based on the rodent's behavioral repertoire for screening drugs with potential antidepressant activity. As in several other models used for this goal, an uncontrollable stress stimulus produces behavioral changes that are sensitive to antidepressant treatment.
The mice were intraperitoneally treated with the test compound with an injection volume of […]. The group treated with 30% PEG400 served as a control group. Thirty minutes following administration, mice were individually forced to swim in a transparent glass vessel (14 cm high, 11.5 cm in diameter) filled with 10 cm of water at 25° C. The total duration of immobility (second) was measured during the last 4 minutes of a single 6-min test session. Mice were considered immobile when they made no further attempts to escape other than the movements necessary to keep their heads above the water. The potent ability of the compounds was determined as percent value of reduction in the duration of immobility comparing to the control group.

mice [2] = assay: Marble burying test; assay type: in vivo; details: 30 min after treatment, vs control group
Description: The Marble burying test is a screening tool for putative anxiolytics. In this test, control mice naturally bury glass marbles in the cage bedding and the administration of anxiolytic compounds, including Diazepam, reduces the number of buried marbles. Positive compounds in the marble burying test including selective serotonin reuptake inhibitor may be especially beneficial to obsessive-compulsive disorder.
A group of mice was intraperitoneally treated with test compound dissolved in 30% PEG400 with an injection volume of 10 ml/kg. The group treated with only 30% PEG400 served as a control group. Thirty minutes after the treatment, the animals were individually placed in a polycarbonate cage which was same as used for animal housing with an open top located within a quiet room. Each cage consisted of ⅛ inch corn bedding 5 cm deep. Twenty four clean glass marbles (15 mm diameter) were evenly spaced in four rows of six on top of the bedding. Each mouse was left in the cage for 30 minutes and the number of marbles buried (buried more than ½ or ⅔) was counted. The potent ability of the compounds was determined as percent value of reduction in the number of marbles buried comparing to the control group.

[3] = target: T1, human recombinant norepinephrine transporter (Homo sapiens, UniProt P23975); assay: Norepinephrine transporter reuptake inhibition assay; assay type: cell-based; details: 100 nM; MDCK cells with human norepinephrine transporter; [3H]Norepinephrine uptake; read-out: Inhibition % at 100 nM NE reuptake
T1 construct: expressed in transfected cells; host or cells: MDCK
T1 sequence (P23975 whole entry): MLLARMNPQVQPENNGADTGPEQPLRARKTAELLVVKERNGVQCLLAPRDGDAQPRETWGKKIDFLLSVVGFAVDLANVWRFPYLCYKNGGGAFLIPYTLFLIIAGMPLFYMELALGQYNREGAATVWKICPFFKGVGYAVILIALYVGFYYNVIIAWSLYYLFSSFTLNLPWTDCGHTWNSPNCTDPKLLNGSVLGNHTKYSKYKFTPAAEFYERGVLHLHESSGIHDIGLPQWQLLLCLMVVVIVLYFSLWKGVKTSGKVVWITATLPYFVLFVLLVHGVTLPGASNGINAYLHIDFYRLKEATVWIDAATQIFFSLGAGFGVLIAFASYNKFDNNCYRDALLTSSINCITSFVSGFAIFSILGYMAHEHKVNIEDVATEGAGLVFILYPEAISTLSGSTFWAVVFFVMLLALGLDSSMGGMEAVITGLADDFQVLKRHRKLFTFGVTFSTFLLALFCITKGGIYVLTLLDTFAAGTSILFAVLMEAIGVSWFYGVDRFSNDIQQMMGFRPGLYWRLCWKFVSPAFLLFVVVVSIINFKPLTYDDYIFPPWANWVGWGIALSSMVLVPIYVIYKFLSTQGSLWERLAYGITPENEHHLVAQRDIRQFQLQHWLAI
Procedure: Norepinephrine Transporter Reuptake Inhibition Assay
Norepinephrine transporter reuptake inhibition assay used the method described by Galli A. et al., J Exp Biol., 1995, 198, p 2197˜2212.
MDCK cells with stably expressed human recombinant norepinephrine transporter were plated one day. Test compounds were pre-incubated with cells (2×10^5/ml) in modified Tris-HEPES buffer pH 7.1 for 20 minutes at 25° C. and then they were incubated for additional 10 minutes after 25 nM of [^3H]Norepinephrine was added. A lysate was obtained from solubilized cells and the filtered lysate was counted to determine [^3H]Norepinephrine uptake. Reduction of [^3H]Norepinephrine uptake by 50 percent or more (≧50%) relative to 10 μM desipramine indicates significant inhibitory activity. Compounds were screened at 10, 1, 0.1, 0.01 and 0.001 μM to determine their IC50s.

mice [4] = assay: Acetic acid induced writhing test (AA writhing test); assay type: in vivo; details: 0.8% acetic acid i.p. 30 min later, vs control group
Description: Specially the results of Marble burying test (MB) in mice as noted in Table 3 show the compounds of the invention are related to the treatment of anxiety. Acetic Acid Induced Writhing Test (AA Writhing Test)
The Acetic acid-induced writhing test is a well-established nociceptive test using a chemical stimulus. Although several animal models of nociceptive tests have been developed to examine and compare the anti-nociceptive effects of different drugs, the anti-nociceptive effects of antidepressants appear to be test-dependent. Indeed, the acetic acid-induced writhing test is more sensitive to antidepressants than other tests using thermal, mechanical or electrical stimuli.
The animals were subcutaneously treated with the test compound with an injection volume of 10 ml/kg. The group treated with 30% PEG400 or saline served as a control group. Thirty minutes later, the mice were intraperitoneally treated with 0.8% (v/v) acetic acid. Each mouse was then placed in a cage for individual observation. The writhing numbers for 10 minutes were counted. The writhe is operationally defined as a contraction of the abdomen followed by stretching of the hind limbs. The potent ability of the compounds was determined as percent value of reduction in the number of writhing comparing to the control group.

[5] = target: T2, human recombinant dopamine transporter (Homo sapiens, UniProt Q01959); assay: Dopamine transporter reuptake inhibition assay; assay type: cell-based; details: 100 nM; CHO-K1 cells with human dopamine transporter; [3H]Dopamine uptake; read-out: Inhibition % at 100 nM DA reuptake
T2 construct: expressed in transfected cells; host or cells: CHO-K1
T2 sequence (Q01959 whole entry): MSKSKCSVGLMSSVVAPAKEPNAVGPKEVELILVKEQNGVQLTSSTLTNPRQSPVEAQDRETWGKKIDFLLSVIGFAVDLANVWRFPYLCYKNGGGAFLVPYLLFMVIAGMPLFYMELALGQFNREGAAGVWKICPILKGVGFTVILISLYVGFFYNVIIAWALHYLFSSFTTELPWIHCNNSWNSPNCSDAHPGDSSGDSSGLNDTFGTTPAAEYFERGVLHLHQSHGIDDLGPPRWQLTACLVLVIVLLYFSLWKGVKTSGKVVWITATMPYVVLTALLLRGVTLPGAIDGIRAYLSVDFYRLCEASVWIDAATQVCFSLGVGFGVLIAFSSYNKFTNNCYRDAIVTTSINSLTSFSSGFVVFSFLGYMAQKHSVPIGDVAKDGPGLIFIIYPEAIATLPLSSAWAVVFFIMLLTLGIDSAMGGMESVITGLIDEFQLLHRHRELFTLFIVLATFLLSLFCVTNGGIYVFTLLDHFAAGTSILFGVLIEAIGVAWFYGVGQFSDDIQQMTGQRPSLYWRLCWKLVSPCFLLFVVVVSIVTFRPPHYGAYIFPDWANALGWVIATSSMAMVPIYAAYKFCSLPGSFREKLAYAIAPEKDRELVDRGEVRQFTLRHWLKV
Procedure: Dopamine Transporter Reuptake Inhibition Assay
The assay followed the method modified from Pristupa Z. B. et al., Mol. Pharmacol., 1994, p 125˜135.
CHO-K1 cells with human recombinant dopamine transporter were plated. Test compounds were pre-incubated with cells (4×10^5/ml) in modified Tris-HEPES buffer pH 7.1 for 20 minutes at 25° C. and then they were incubated for additional 10 minutes after 50 nM of [^3H]Dopamine was added. A lysate is obtained from solubilized cells and counted to determine [^3H]Dopamine uptake. Reduction of [^3H]Dopamine uptake by 50 percent or more (≧50%) relative to 10 μM nomifensine indicates significant inhibitory activity. Compounds were tested at 10, 1, 0.1, 0.01 and 0.001 μM for IC50s.

[6] = target: T3, human serotonin transporter (Homo sapiens, UniProt P31645); assay: Serotonin transporter reuptake inhibition assay; assay type: cell-based; details: HEK293; 100 nM; HEK-293 cells with human serotonin transporter; [3H]Serotonin uptake; read-out: Inhibition % at 100 nM 5-HT reuptake
T3 construct: expressed in transfected cells; host or cells: HEK-293
T3 sequence (P31645 whole entry): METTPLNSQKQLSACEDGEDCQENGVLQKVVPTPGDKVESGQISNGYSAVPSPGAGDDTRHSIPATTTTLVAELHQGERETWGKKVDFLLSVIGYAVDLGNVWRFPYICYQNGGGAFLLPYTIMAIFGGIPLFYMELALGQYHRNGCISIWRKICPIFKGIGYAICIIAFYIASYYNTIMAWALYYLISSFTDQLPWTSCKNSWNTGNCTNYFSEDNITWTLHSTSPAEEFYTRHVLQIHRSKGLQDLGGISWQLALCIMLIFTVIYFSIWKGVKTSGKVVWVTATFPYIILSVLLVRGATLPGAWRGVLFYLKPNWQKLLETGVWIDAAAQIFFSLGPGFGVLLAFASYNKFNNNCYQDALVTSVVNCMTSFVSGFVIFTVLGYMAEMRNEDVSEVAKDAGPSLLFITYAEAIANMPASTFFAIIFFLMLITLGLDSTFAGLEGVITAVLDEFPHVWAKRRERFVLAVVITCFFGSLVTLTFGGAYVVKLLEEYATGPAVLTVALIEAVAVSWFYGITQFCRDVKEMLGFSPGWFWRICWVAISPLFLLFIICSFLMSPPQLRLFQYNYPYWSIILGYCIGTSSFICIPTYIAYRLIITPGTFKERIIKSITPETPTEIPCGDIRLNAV
Procedure: Serotonin Transporter Reuptake Inhibition Assay
The method to test the ability of compounds to inhibit transporters from reuptake of serotonin followed Gu H. et al., J Biol. Chem., 1994, 269, p […].
The recombinant HEK-293 cells with human serotonin transporter were plated. Test compounds were pre-incubated with cells (2×10^5/ml) in modified Tris-HEPES buffer pH 7.1 for 20 minutes at 25° C. and then they were incubated for additional 10 minutes after 65 nM of [^3H]Serotonin was added. Bound cells were filtered and counted to determine [^3H]Serotonin uptake. Reduction of [^3H]Serotonin uptake by 50 percent or more (≧50%) relative to 10 μM fluoxetine indicates significant inhibitory activity. Compounds were screened at 10, 1, 0.1, 0.01 and 0.001 μM for IC50s.

With c1ccc2cc([C@@H]([C@@H]3CCCNC3)n3ncnn3)ccc2c1 [Example 1, (3R)-3-[(R)-naphthalen-2-yl(2H-tetrazol-2-yl)methyl]piperidine] the inhibition in vivo at 30 mg/kg (mice [1]) was 56.3%, the “Reduction % (number of marbles buried) at 10ip” value (mice [2]; 10ip) was 57.5% (at 10ip) and the inhibition at 0.1 µM [3] was 94%. For the same compound, the “Reduction % at 30sc (number of writhing)” value (mice [4]) was 70.8%, the inhibition at 0.1 µM [5] was 88% and the inhibition at 0.1 µM [6] was 81%.

With c1ccc2cc([C@H]([C@H]3CCCNC3)n3ncnn3)ccc2c1 [Example 2, (3S)-3-[(S)-naphthalen-2-yl(2H-tetrazol-2-yl)methyl]piperidine] the inhibition in vivo at 30 mg/kg (mice [1]) was 37.5%, the “Reduction % (number of marbles buried) at 20ip” value (mice [2]; 20ip) was 67.5% (at 20ip) and the inhibition at 0.1 µM [3] was 85%. The “Reduction % (number of writhing) at 10sc” value (mice [4]) was 60.6% (at 10sc), the inhibition at 0.1 µM [5] was 85% and the inhibition at 0.1 µM [6] was 98%.

With Cc1nnn([C@@H](c2ccc3ccccc3c2)[C@@H]2CCCNC2)n1 [Example 12, (3R)-3-[(R)-(5-methyl-2H-tetrazol-2-yl)(naphthalen-2-yl)methyl]piperidine] the inhibition in vivo at 30 mg/kg (mice [1]) was 9.7%, the “Reduction % at 30ip (number of marbles buried)” value (“Reduction % at 30ip” below) (mice [2]) was 91.8% and the inhibition at 0.1 µM [3] was 90%. For the same compound, the “Reduction % at 30sc (number of writhing)” value (mice [4]) was 50.5%, the inhibition at 0.1 µM [5] was 92% and the inhibition at 0.1 µM [6] was 83%.

With c1ccc2cc([C@@H]([C@@H]3CCCNC3)n3nccn3)ccc2c1 [Example 13, (3R)-3-[(R)-naphthalen-2-yl(2H-1,2,3-triazol-2-yl)methyl]piperidine] the inhibition in vivo at 30 mg/kg (mice [1]) was 9.4%, the inhibition at 0.1 µM [3] was 87% and the “Reduction % at 30sc (number of writhing)” value (mice [4]) was 71.8%. The inhibition at 0.1 µM [5] was 63% and the inhibition at 0.1 µM [6] was 84%.

For Clc1ccc([C@@H]([C@@H]2CCCNC2)n2ncnn2)cc1Cl [Example 15, (3R)-3-[(R)-(3,4-dichlorophenyl)(2H-tetrazol-2-yl)methyl]piperidine], the inhibition in vivo at 30 mg/kg (mice [1]) was 96.5%, the “Reduction % at 30ip” value (mice [2]) was 75.3% and the inhibition at 0.1 µM [3] was 98%. The “Reduction % at 30sc (number of writhing)” value (mice [4]) was 55.3%, the inhibition at 0.1 µM [5] was 99% and the inhibition at 0.1 µM [6] was 75%.

Clc1ccc2cc([C@H]([C@H]3CCCNC3)n3ncnn3)ccc2c1 [Example 68, (3S)-3-[(S)-(6-chloronaphthalen-2-yl)(2H-tetrazol-2-yl)methyl]piperidine] was tested, and the inhibition in vivo at 30 mg/kg (mice [1]) was 7.1%, the inhibition at 0.1 µM [3] was 57% and the “Reduction % (number of writhing) at 10sc” value (mice [4]) was 48.1% (at 10sc). It also gave an inhibition at 0.1 µM [5] of 63% and an inhibition at 0.1 µM [6] of 96%.

With Fc1ccc2cc([C@H]([C@H]3CCCNC3)n3ncnn3)ccc2c1 [Example 71] the inhibition in vivo at 30 mg/kg (mice [1]) was 54%, the “Reduction % at 30ip” value (mice [2]) was 86.0% and the inhibition at 0.1 µM [3] was 46%. For the same compound, the “Reduction % at 30sc (number of writhing)” value (mice [4]) was 48.7%, the inhibition at 0.1 µM [5] was 54% and the inhibition at 0.1 µM [6] was 92%.

With Fc1ccc2cc([C@@H]([C@@H]3CCCNC3)n3ncnn3)ccc2c1 [Example 83, (3R)-3-[(R)-(6-fluoronaphthalen-2-yl)(2H-tetrazol-2-yl)methyl]piperidine] the inhibition in vivo at 30 mg/kg (mice [1]) was 51.8%, the “Reduction % at 30ip” value (mice [2]) was 83.7% and the inhibition at 0.1 µM [3] was 78%. The “Reduction % at 30sc (number of writhing)” value (mice [4]) was 84.1%, the inhibition at 0.1 µM [5] was 66% and the inhibition at 0.1 µM [6] was 96%.

Cc1ccc2cc([C@H]([C@H]3CCCNC3)n3ncnn3)ccc2c1 [Example 85, (3S)-3-[(S)-(6-methylnaphthalen-2-yl)(2H-tetrazol-2-yl)methyl]piperidine] was tested, and the inhibition in vivo at 30 mg/kg (mice [1]) was 11.3%, the inhibition at 0.1 µM [3] was 74% and the “Reduction % (number of writhing) at 10sc” value (mice [4]) was 46.4% (at 10sc). The inhibition at 0.1 µM [5] was 81% and the inhibition at 0.1 µM [6] was 94%.

— US8513285B2, “3 or 4-substituted piperidine compounds” (SK Biopharmaceuticals Co., Ltd., priority 2008, dated 2013)
